The term IC50 denotes the concentration that gives 50% inhibition. The term logP denotes a log measure of how a compound divides between an organic and an aqueous phase. A word on the logD: it is the decadic logarithm of the distribution of all forms, ionised or not, between an organic phase and buffer at a given pH. The low end stands for lower lipophilicity, the high end for higher lipophilicity. As usually defined, the solubility is the concentration that dissolves in the medium under given conditions. High values mean much dissolved substance, low ones little dissolved substance.

These results are taken from ChEMBL document CHEMBL6153037, “Developing dual-responsive quinolinium prodrugs of 8-hydroxyquinoline by harnessing the dual chelating sites” (Eur J Med Chem, 2025).

The subject of series [1] is MDA-MB-231. Put plainly: Cytotoxicity against human MDA-MB-231 cells assessed as inhibition of cell viability incubated for 48 hrs by MTT assay. Conditions: MDA-MB-231, 48 h. It counts as functional, cell-based. (In general: Tetrazolium dyes change colour on reduction, which living cells bring about.)
The nature of series [2]: Cytotoxicity against human MCF-10A cells assessed as inhibition of cell viability incubated for 48 hrs by MTT assay. It counts as toxicity, cell-based.
Series [3] can be described thus: Selectivity index, ratio of inhibition of DNA synthesis in human MCF-10A cells to inhibition of DNA synthesis in human MDA-MB-231 cells. The class given is toxicity, cell-based. The note with it: MCF-10A cells and MDA-MB-231 cells.
The nature of series [4]: Lipophilicity, logP of compound. The class given is physicochemical. Conditions: octanol/water.
Series [5] is described as follows: Lipophilicity, logD of compound at pH 7.4. It counts as physicochemical. Conditions: buffer.
A short description of series [6]: Solubility of compound in double distilled H2O. The note with it: double distilled water. The class given is physicochemical.
A short description of series [7]: Solubility of compound in PBS buffer at pH 7.4. It counts as physicochemical.
In series [8] the test system is MDA-MB-231. In words: Cytotoxicity against human MDA-MB-231 cells incubated for 24 to 48 hrs by MTT assay. It counts as functional, cell-based. The note with it: time 24-48 hrs.
For series [9], the system named is MDA-MB-231. Put plainly: Effect on phlorizin-induced cytotoxicity against human MDA-MB-231 cells incubated for 12 hrs by MTT assay. The class given is functional, cell-based.
For series [10], the system named is MDA-MB-231. In words: Induction of apoptosis in human MDA-MB-231 cells assessed as viable cells incubated for 24 hrs by Annexin V-FITC/PI staining based flow cytometry (reference value: 99.5 %). The class given is functional.
The subject of series [11] is MDA-MB-231. In words: Induction of apoptosis in human MDA-MB-231 cells assessed as early apoptotic cells incubated for 24 hrs by Annexin V-FITC/PI staining based flow cytometry (reference value: 0.22 %). It counts as functional.
In series [12] the test system is MDA-MB-231. In words: Induction of apoptosis in human MDA-MB-231 cells assessed as late apoptotic cells incubated for 24 hrs by Annexin V-FITC/PI staining based flow cytometry (reference value: 0.17 %). The class given is functional. A general note: Flow cytometry measures light scatter and fluorescence of single cells or particles in a stream.
For series [13], the system named is MDA-MB-231. Put plainly: Induction of apoptosis in human MDA-MB-231 cells assessed as necrotic cells incubated for 24 hrs by Annexin V-FITC/PI staining based flow cytometry (reference value: 0.065 %). It counts as functional.
Series [14] is described as follows: Induction of apoptosis in human MCF-10A cells assessed as viable cells incubated for 24 hrs by Annexin V-FITC/PI staining based flow cytometry (reference value: 96.0 %). It counts as toxicity, cell-based. The note with it: read-out: Activity.
Series [15] relates to MCF-10A. In words: Induction of apoptosis in human MCF-10A cells assessed as early apoptotic cells incubated for 24 hrs by Annexin V-FITC/PI staining based flow cytometry (reference value: 1.66 %). It counts as toxicity, cell-based.
The subject of series [16] is MCF-10A. Put plainly: Induction of apoptosis in human MCF-10A cells assessed as late apoptotic cells incubated for 24 hrs by Annexin V-FITC/PI staining based flow cytometry (reference value: 2.16 %). It counts as toxicity, cell-based.
Series [17] deals with MCF-10A. Put plainly: Induction of apoptosis in human MCF-10A cells assessed as necrotic cells incubated for 24 hrs by Annexin V-FITC/PI staining based flow cytometry (reference value: 0.17 %). The class given is toxicity, cell-based.
Series [18] concerns MDA-MB-231. In words: Antitumor activity against human MDA-MB-231 cells assessed as sphere-forming efficiency incubated for 6 hrs followed by medium replacement without compound measured after 6 days by microscopic analysis (reference value: 1.07 %). The class given is functional.
Series [19] can be described thus: Toxicity in BALB/c nude mouse xenografted with human MDA-MB-231 cells assessed as body weight change at 20 mg/kg, iv administered every two days for 21 days. It counts as organism-based. Conditions: in vivo, 504 h, time 21 day.
In series [20] the test system is MDA-MB-231. In words: Induction of apoptosis in human MDA-MB-231 cells assessed as viable cells at 0.8 uM incubated for 24 hrs by Annexin V-FITC/PI staining based flow cytometry (reference value: 86.2 %). The class given is functional. The note with it: read-out: Activity.
The subject of series [21] is MDA-MB-231. Put plainly: Induction of apoptosis in human MDA-MB-231 cells assessed as early apoptotic cells at 0.8 uM incubated for 24 hrs by Annexin V-FITC/PI staining based flow cytometry (reference value: 7.39 %). It counts as functional.
The subject of series [22] is MDA-MB-231. Put plainly: Induction of apoptosis in human MDA-MB-231 cells assessed as late apoptotic cells at 0.8 uM incubated for 24 hrs by Annexin V-FITC/PI staining based flow cytometry (reference value: 5.81 %). It counts as functional.
The subject of series [23] is MDA-MB-231. In words: Induction of apoptosis in human MDA-MB-231 cells assessed as necrotic cells at 0.8 uM incubated for 24 hrs by Annexin V-FITC/PI staining based flow cytometry (reference value: 0.59 %). The class given is functional.
Series [24] is described as follows: Induction of apoptosis in human MCF-10A cells assessed as viable cells at 0.8 uM incubated for 24 hrs by Annexin V-FITC/PI staining based flow cytometry (reference value: 92.5 %). The class given is toxicity, cell-based. Conditions: read-out: Activity.
Series [25] deals with MCF-10A. Put plainly: Induction of apoptosis in human MCF-10A cells assessed as early apoptotic cells at 0.8 uM incubated for 24 hrs by Annexin V-FITC/PI staining based flow cytometry (reference value: 2.96 %). The class given is toxicity, cell-based.
In series [26] the test system is MCF-10A. Put plainly: Induction of apoptosis in human MCF-10A cells assessed as late apoptotic cells at 0.8 uM incubated for 24 hrs by Annexin V-FITC/PI staining based flow cytometry (reference value: 3.13 %). The class given is toxicity, cell-based.
The subject of series [27] is MCF-10A. Put plainly: Induction of apoptosis in human MCF-10A cells assessed as necrotic cells at 0.8 uM incubated for 24 hrs by Annexin V-FITC/PI staining based flow cytometry (reference value: 1.38 %). The class given is toxicity, cell-based.
Series [28] has as its system MDA-MB-231. Put plainly: Induction of cell cycle arrest in human MDA-MB-231 cells assessed as accumulation at G0/G1 phase at 0.8 uM by PI staining based flow cytometry (reference value: 64.6 %). The class given is functional.
The test system of series [29] is MDA-MB-231. Put plainly: Anti-migration activity in human MDA-MB-231 cells at 0.8 uM incubated for 24 hrs by wound healing assay (reference value: 45.4 %). The class given is functional.
Series [30] relates to MDA-MB-231. In words: Anti-migration activity in human MDA-MB-231 cells at 0.8 uM incubated for 48 hrs by wound healing assay (reference value: 65.2 %). The class given is functional.
Series [31] has as its system MDA-MB-231. Put plainly: Inhibition of mitochondrial membrane potential in human MDA-MB-231 cells assessed as increase in green fluorescence at 0.8 uM incubated for 24 hrs by JC-1 dye based analysis. The class given is functional, cell-based.
In series [32] the test system is MCF-10A. In words: Inhibition of mitochondrial membrane potential in human MCF-10A cells assessed as increase in green fluorescence at 0.8 uM incubated for 24 hrs by JC-1 dye based analysis. The class given is toxicity, cell-based.
Series [33] has as its system MDA-MB-231. Put plainly: Induction of apoptosis in human MDA-MB-231 cells assessed as viable cells incubated for 24 hrs by Annexin V-FITC/PI staining based flow cytometry (reference value: 92.06 %). The class given is functional.
Series [34] relates to MDA-MB-231. In words: Induction of apoptosis in human MDA-MB-231 cells assessed as early apoptotic cells incubated for 24 hrs by Annexin V-FITC/PI staining based flow cytometry (reference value: 1.94 %). The class given is functional.
Series [35] relates to MDA-MB-231. In words: Induction of apoptosis in human MDA-MB-231 cells assessed as late apoptotic cells incubated for 24 hrs by Annexin V-FITC/PI staining based flow cytometry (reference value: 2.4 %). It counts as functional.
For series [36], the system named is MDA-MB-231. Put plainly: Induction of apoptosis in human MDA-MB-231 cells assessed as necrotic cells incubated for 24 hrs by Annexin V-FITC/PI staining based flow cytometry (reference value: 3.6 %). The class given is functional.
Series [37] concerns MDA-MB-231. In words: Induction of cell cycle arrest in human MDA-MB-231 cells assessed as accumulation at G0/G1 phase in presence of UV by PI staining based flow cytometry (reference value: 43.25 %). The class given is functional.
For series [38], the system named is MDA-MB-231. In words: Inhibition of mitochondrial membrane potential in human MDA-MB-231 cells incubated for 24 hrs in presence of UV by JC-1 dye based analysis (reference value: 5.51 %). The class given is functional.
Series [39] concerns MDA-MB-231. In words: Cytotoxicity against human MDA-MB-231 cells assessed as decrease in cell viability at 5 uM incubated for 48 hrs by MTT assay relative to control. It counts as functional.

In brackets after ≈: the same amount, converted by molar mass. Activity calls are given as the source filed them. The calls are words filed in the database; no cut-off is given here.

Regarding `OC[C@H]1O[C@@H](Oc2ccc(COc3cccc4cccnc34)cc2)[C@H](O)[C@@H](O)[C@@H]1O`, the IC50 in the series on MDA-MB-231 [1] amounted to 1.2 µM. The IC50 at 48 h in [2] was found to be 4.13 µM. The selectivity ratio in [3] came to 2.3. Also, in series [4], the logP is listed as 3.81. This compound registered a logD in [5] of 4.14. Further, the solubility in series [6] is 0.0173 mg/mL (≈ 41.9 µM); in series [7] it was 0.0156 mg/mL (≈ 37.8 µM). The outcome in the series with MDA-MB-231 [8] was Active. Moreover, the outcome in the series with MDA-MB-231 [9] was inactive. In addition, the Activity in the series on MDA-MB-231 [10] is 24.5%; in the series with MDA-MB-231 [11], 52.3%; in the series on MDA-MB-231 [12] it was 23%; in the series with MDA-MB-231 [13], 0.11%; with MCF-10A [15], 9.17%; in the series on MCF-10A [16] it was 13.3%. In addition, the Activity in the series with MCF-10A [17] is 0.88%; with MDA-MB-231 [18], 0.21%; in [19] it was “Non-toxic”. In addition, the viability at 24 h in [14] amounted to 76.6%.
In the case of `Oc1cccc2cccnc12` [OXYQUINOLINE], the viability at 0.8 µM in the series with MDA-MB-231 [20] was 3.03%. Moreover, the Activity in the series on MDA-MB-231 [21] is listed as 80.5%; with MDA-MB-231 [22], 15.6%; with MDA-MB-231 [23] it was 0.88%; in the series on MCF-10A [25] it was 63.2%; in the series with MCF-10A [26] it was 24.4%; in the series on MCF-10A [27], 3.39%. The Activity was 78.2% with MDA-MB-231 [28]; 3.8% in the series on MDA-MB-231 [29]; 5.6% in the series on MDA-MB-231 [30]; “Toxic” with MCF-10A [32]; 0.19% in the series with MDA-MB-231 [18]; “Non-toxic” in series [19]. For the same compound, the Activity in the series with MDA-MB-231 [33] was 44.1%; in the series on MDA-MB-231 [34], 33.76%; in the series with MDA-MB-231 [35], 20.48%; with MDA-MB-231 [36], 2.66%; in the series on MDA-MB-231 [37], 61.23%. Also, in series [24], the viability at 24 h, 0.8 µM was 8.98%. Besides, in the series on MDA-MB-231 [31], the inhibition entry was “Active”. The “inhibition (INH)” value in the series on MDA-MB-231 [38] worked out at 46.91%.
Regarding `Br.[N-]=[N+]=Nc1ccc(C[n+]2cccc3cccc(O)c32)cc1`, the Activity in the series on MDA-MB-231 [39] is less than 25%.
